The values below are quoted from earlier work in US10512655B1, “Methods and compositions for the topical treatment of peripheral neuropathy” (Jeffrey S. Brooks, Inc., priority 2013, dated 2019).

The subject of data set [1] is patients with type 1 diabetes. The conditions noted are these: oral, 300 mg/day over 24 months.
Data set [2] concerns patients suffering from DPN. The conditions noted are these: topical, KY gel non-occlusive vehicle.

Consider `C/C(=C(\CCOP(=O)(O)O)SC(=O)c1ccccc1)N(C=O)Cc1cnc(C)nc1N` [benfotiamine, Benfotiamine], for which the “effects upon peripheral nerve function or soluble markers of inflammation” value in data set [1] is on record as “no significant effects”. As for `CN1CC[C@]23c4c5ccc(O)c4O[C@H]2[C@@H](O)C=C[C@H]3[C@H]1C5` [morphine], in data set [2], the pain relief result is “no pain relief”.
